In patent US12569497B2, “Use of HCN inhibitors for treatment of cancer” (The University of Hong Kong, priority 2017, dated 2026):
Counter-ions that a name gives are not always drawn.

Assays:
[1] = cited from earlier work
[2] = system: TNBC cell line MDA-MB-453; test: MTT proliferation assay, MDA-MB-453; type: cell-based; conditions: 200 μM, 5 days, vs double distilled water
Description: (§1) Ivabradine was purchased (Sigma). The powder was dissolved into double-distilled water.
(§2) MCF10A, MCF7, ZR75-1, BT474, MDA-MB-231, MDA-MB-453, Ishikawa, SW1116, PLC/PRF/5, MHCC-97L and Huh7 cells were seeded in 96-well plate with cell density 5000 cells per well. 200 μM of Ivabradine was used for cell treatment while double distilled water was used as control. […] MTT solution was prepared at 5 mg/mL in PBS and was filtered through a 0.2 μm filter. Then, 50 μl of MTT plus 200 μl of culture medium were added into each well. Cells were incubated for 4 hours at 37° C. with 5% CO2, 95% air and complete humidity. After 4 hours, the medium with MTT solution was removed and replaced with 200 μl of isopropanol with 4 mmol/L HCl and 0.1% NP-40. The 96-well plate was further incubated for 5 min at room temperature. The optical density of the wells was determined using a plate reader at a test wavelength of 570 nm and a reference wavelength of 630 nm.

[3] = system: liver cancer cells MHCC-97L; test: clonogenic assay, MHCC-97L; type: cell-based; conditions: 200 μM, 2 weeks
Description: (§3) For the clonogenic assay, 2000 cells were seeded in 6-well plate. 200 μM of Ivabradine was used to treat the cells while double distilled water was used as negative control. The cells were treated for 14 days. The cells were washed with 1 mL of 1×PBS and then fixed by incubating with 4% paraformaldehyde in PBS for 15 minutes at room temperature. The cells were washed with 1 mL of 1×PBS. The cell colonies were visualized by staining with 0.5% crystal violet (Sigma) solution for 1 hour at room temperature. The cells were washed with tap water. The number of cells equal or greater than 50 cells would be regarded as one colony. Number of colonies was counted. After the counting, stain was extracted by incubating with 500 μL of 10% acetic acid solution. The optical density at 650 nm was measured.

[4] = system: liver cancer cell line PLC/PRF/5; test: MTT proliferation assay, PLC/PRF/5; type: cell-based; conditions: 200 μM, 5 days, vs double distilled water
Description: as §1, §2

[5] = system: MDA-MB-453 xenografts; test: tumor xenograft growth in nude mice, MDA-MB-453; type: in vivo, female nude mice; conditions: MDA-MB-453 xenograft, 15 mg kg^−1 day^−1 IP, 18 days
Description: (§4) The effects of Ivabradine suppression on triple negative breast cancer was investigated in a female nude mouse model with MDA-MB-231 and MDA-MB-453 cells. The cell lines mixed with Matrigel (BD Biosciences) at the ratio of 1:1 were inoculated into the abdominal mammary fat pad of the 5 to 6 week old female nude mice. When the tumors were palpable, the mice were randomized into two groups, each consisting of eight animals. Each group was treated with Ivabradine (15 mg/kg day-1) or water. All reagents were administered via intraperitoneal delivery. Tumor sizes were measured by caliper and tumor volume was calculated as (length*width*width)/2. This protocol has been reviewed and approved by Committee on the Use of Live Animals in Teaching and Research (CULATR), the University of Hong Kong.
(§5) Tumor growth was compared between treatment and control groups (P<0.001). After 15 days (MDA-MB-231) or 18 days (MDA-MB-453) of the treatment, tumors were isolated and recorded by photo.

[6] = system: MDA-MB-453 breast cancer cells; test: apoptosis by flow cytometry (APO-BrdU TUNEL), MDA-MB-453; type: cell-based; conditions: 200 μM, 72 hours
Description: (§6) Cells were seeded in 10 cm dish. When the confluence of cells reached 80%, the cells were treated with 200 μM of Ivabradine or double distilled water for 72 hours. The cells were washed with 10 mL of 1×PBS. The cells were detached from the dish by treating the cells with 1 mL of Trypsin (Gibco). The cell suspension was transferred to 15 mL centrifuge tube and subjected to centrifugation at 300×g for 5 minutes at room temperature. The cell pellet was kept. The cell pellet was washed with 5 mL of 1×PBS. The cell suspension was centrifuged at 300×g for 5 minutes at room temperature. The cell pellet was resuspended in 5 mL of 4% paraformaldehyde in PBS and place on ice for 15 minutes. The cell suspension was centrifuged at 300×g for 5 minutes. The cell pellet was washed with 5 mL of 1×PBS. After the washing, the cell suspension was centrifuged at 300×g for 5 minutes at room temperature. The cell pellet was resuspended in 0.5 mL of 1×PBS. The cell suspension was added to 5 mL of ice-cold 70% ethanol for 30 minutes. APO-BrdU TUNEL Assay Kit (ThermoFisher, Cat: A23210) was used. For each cell pellet, DNA labelling solution was prepared by mixing 10 μL of reaction buffer, 0.75 μL of TdT enzyme, 8 μL of BrdUTP and 31.25 μL of double distilled water. The cell pellet was resuspended in 50 μL of the DNA-labeling solution. […] The cells were analysed by BD LSR Fortessa Analyzer.

[7] = system: (Ishikawa); test: clonogenic assay, Ishikawa; type: cell-based; conditions: 200 μM, 2 weeks
Description: as §3

[8] = system: liver cancer cell line Huh7; test: MTT proliferation assay, Huh7; type: cell-based; conditions: 200 μM, 5 days, vs double distilled water
Description: as §1, §2

[9] = system: MDA-MB-231 breast cancer cells; test: cell cycle flow cytometry (propidium iodide), MDA-MB-231; type: cell-based; conditions: 200 μM, 72 hours
[10] = system: MDA-MB-231 breast cancer cells; test: apoptosis by flow cytometry (APO-BrdU TUNEL), MDA-MB-231; type: cell-based; conditions: 200 μM, 72 hours
Description: as §6

[11] = system: liver cancer cells PLC/PRF/5; test: clonogenic assay, PLC/PRF/5; type: cell-based; conditions: 200 μM, 2 weeks
Description: as §3

[12] = system: MDA-MB-231 xenografts; test: tumor xenograft growth in nude mice, MDA-MB-231; type: in vivo, female nude mice; conditions: MDA-MB-231 xenograft, 15 mg kg^−1 day^−1 IP, 15 days
Description: as §4, §5

[13] = system: colon cancer cells (SW1116); test: clonogenic assay, SW1116; type: cell-based; conditions: 200 μM, 2 weeks
Description: as §3

[14] = system: breast cancer cell line MCF7; test: MTT proliferation assay, MCF7; type: cell-based; conditions: 200 μM, 5 days, vs double distilled water
Description: as §1, §2

[15] = system: breast cancer cell line BT474; test: MTT proliferation assay, BT474; type: cell-based; conditions: 200 μM, 5 days, vs double distilled water
Description: as §1, §2

[16] = system: BT-474 breast cancer cells; test: cell cycle flow cytometry (propidium iodide), BT-474; type: cell-based; conditions: 200 μM, 24 hours
[17] = system: colon cancer cell line SW1116; test: MTT proliferation assay, SW1116; type: cell-based; conditions: 200 μM, 3 days, vs double distilled water
Description: as §1
MCF10A, MCF7, ZR75-1, BT474, MDA-MB-231, MDA-MB-453, Ishikawa, SW1116, PLC/PRF/5, MHCC-97L and Huh7 cells were seeded in 96-well plate with cell density 5000 cells per well. 200 μM of Ivabradine was used for cell treatment while double distilled water was used as control. 3-(4,5-dimethyl-2-thiazolyl)-2,5-diphenyl-2H-tetrazolium bromide (MTT) assay was performed 24, 48, 72 and 96 hours after Ivabradine treatment. MTT solution was prepared at 5 mg/mL in PBS and was filtered through a 0.2 μm filter. Then, 50 μl of MTT plus 200 μl of culture medium were added into each well. Cells were incubated for 4 hours at 37° C. with 5% CO2, 95% air and complete humidity. After 4 hours, the medium with MTT solution was removed and replaced with 200 μl of isopropanol with 4 mmol/L HCl and 0.1% NP-40. The 96-well plate was further incubated for 5 min at room temperature. The optical density of the wells was determined using a plate reader at a test wavelength of 570 nm and a reference wavelength of 630 nm.

[18] = system: TNBC cell line MDA-MB-231; test: MTT proliferation assay, MDA-MB-231; type: cell-based; conditions: 200 μM, 5 days, vs double distilled water
Description: as §1, §2

[19] = system: cancer cell line Ishikawa; test: MTT proliferation assay, Ishikawa; type: cell-based; conditions: 200 μM, 7 days, vs double distilled water
Description: as §1, §2

[20] = system: breast cancer cells (MCF7, MDA-MB-231, MDA-MB-453, and BT-474); test: clonogenic assay, breast cancer cells; type: cell-based; conditions: 200 μM, 2 weeks
Description: as §3

[21] = system: MDA-MB-453 breast cancer cells; test: cell cycle flow cytometry (propidium iodide), MDA-MB-453; type: cell-based; conditions: 200 μM, 72 hours
Description: as §6, with “Analyzer. […]” for “Analyzer.”

[22] = system: liver cancer cell line MHCC-97L; test: MTT proliferation assay, MHCC-97L; type: cell-based; conditions: 200 μM, 5 days, vs double distilled water
Description: as §1, §2

[23] = system: BT-474 breast cancer cells; test: apoptosis by flow cytometry (APO-BrdU TUNEL), BT-474; type: cell-based; conditions: 200 μM, 24 hours
Description: as §6, with “When the confluence of cells reached 80%, the cells were treated with 200 μM of Ivabradine or double distilled water for 72 hours.” left out, “solution. The cell suspension was incubated at 37° C. for 1 hour.” for “solution.”

For `COc1cc2c(cc1OC)CC(=O)N(CCCN(C)C[C@H]1Cc3cc(OC)c(OC)cc31)CC2` [Ivabradine hydrochloride salt], the solubility in water [1] is listed as “over 5 mg/ml”.
In the case of `COc1cc2c(cc1OC)CC(=O)N(CCCN(C)C[C@H]1Cc3cc(OC)c(OC)cc31)CC2` [Ivabradine, 1.7,8-dimethoxy-3-(3-(((4,5-dimethoxybenzocyclobutan-1-yl)methyl)methylamino)propyl)-1,3,4,5-tetrahydro-2H-benzazepin-2-one], the “proliferation (MTT)” value [2] is reported as “significantly reduced the proliferation”, the “colony formation and proliferation (clonogenic assay)” value (shortened to “colony formation and proliferation”) [3] is reported as “suppression of liver cancer colony formation and proliferation” and the “proliferation (MTT)” value [4] is reported as “significantly reduced the proliferation”. The tumor growth [5] was “significantly suppress tumor growth”, the apoptosis [6] was “significantly induces apoptosis” and the “colony formation and proliferation” value [7] was “suppression of ovarian cancer colony formation and proliferation”. For the same molecule, the “proliferation (MTT)” value [8] was “significantly reduced the proliferation”, the cell cycle arrest [9] was “induced sub-G1 cell cycle arrest” and the apoptosis [10] was “significantly induces apoptosis”. For the same molecule, the “colony formation and proliferation” value [11] was “suppression of liver cancer colony formation and proliferation”, the tumor growth [12] was “significantly suppress tumor growth” and the “colony formation and proliferation” value [13] was “suppression of colon cancer colony formation and proliferation”. The “proliferation (MTT)” value [14] was “significantly reduced the proliferation”, the “proliferation (MTT)” value [15] was “significantly reduced the proliferation” and the cell cycle arrest [16] was “induced sub-G1 cell cycle arrest”. The “proliferation (MTT)” value [17] was “significantly reduced the proliferation”, the “proliferation (MTT)” value [18] was “significantly reduced the proliferation” and the “proliferation (MTT)” value [19] was “significantly reduced the proliferation”. The “colony formation and proliferation” value [20] was “suppression of breast cancer colony formation and proliferation”, the solubility in water [1] was “about 0.02 mg/ml” and the cell cycle arrest [21] was “induced sub-G1 cell cycle arrest”. The “proliferation (MTT)” value [22] was “significantly reduced the proliferation” and the apoptosis [23] was “significantly induces apoptosis”.
